Results published in patent publication US9950026B2, “Methods for reducing oxidative damage” (Cornell Research Foundation, Inc., priority 2004, dated 2018).
Where a SMILES comes first, the peptide text is derived from it. [ ]: non-standard residue; d: D form. Dmt = Cc1cc(O)cc(C)c1C[C@H](N)C(=O)O

System: C57BL/6 mice subjected to 30 min MCAO
Assay: Redox status (cysteine, ascorbate, GSH) after transient MCAO
Assay type: in vivo
Details: 2 mg/kg i.p. upon reperfusion, 6 h
Protocol: FIG. 31A-31C. Effect of SS-31 peptide on ischemia-induced changes in cysteine (A) ascorbate (B), and GSH (C) levels, C57BL/6 mice were subjected to 30 min MCAO and treated with vehicle, SS-31 (2 mg/kg body weight) or SS-20 (2 mg/kg body eight) peptide immediately after reperfusion. Mice were sacrificed at 6 h postischemia. Values are expressed as percent increase (cysteine) or percent depletion (ascorbate and GSH) in ipsilateral side versus contralateral side. Error bars indicate SEM (n=4-6 animals per group).
To test the efficacy of SS-3 1 on redox status, cysteine, ascorbate and GSH levels were determined 6 h after 30 min transient middle cerebral artery occlusion (MCAO) in mice treated intraperitoneally (i.p.) with saline (vehicle), SS-31 (2 mg/kg) or SS-20 (2 mg/kg) upon reperfusion. Values in FIG. 31 are expressed as percent increase (cysteine) and percent depletion (ascorbate and GSH) in the ipsilateral side compared to the contralateral side. Absolute values were originally expressed as nmoles/mg protein as shown in FIG. 30 and converted to percent difference. The percent ipsilateral cysteine increase was similar among vehicle-, SS-31-, and SS-20-treated groups (FIG. 31A).

With `Cc1cc(O)cc(C)c1C[C@H](NC(=O)[C@H](N)CCCNC(=N)N)C(=O)N[C@@H](CCCCN)C(=O)N[C@@H](Cc1ccccc1)C(N)=O` [SS-31, D-Arg-2′6′-Dmt-Lys-Phe-NH2] (H-[dR][Dmt]KF-NH2; N-terminus assumed) the “ischemia-induced GSH depletion in the cortex” value was “significantly attenuated”, the “percent ipsilateral cysteine increase” value was “similar” and the “percent ipsilateral depletion of ascorbate” value was “marginally but not significantly affected”.
